How the values were obtained:
Settings in all cases: 72 h
HepG2 [1] = test: drug sensitivity score (DSS) for viability; higher = more toxic; extreme values may be limits of the assay
U2OS [2] = test: as above
Caco-2 [3] = test: as above
Vero E6 [4] = test: as above
HepG2 [5] = test: relative viability EC50 (midpoint between 100% and the lowest measured viability); higher = less toxic
U2OS [6] = test: as above
Caco-2 [7] = test: as above
Vero E6 [8] = test: as above
HepG2 [9] = test: cell viability relative to DMSO; higher = less toxic
U2OS [10] = test: as above
Caco-2 [11] = test: as above
Vero E6 [12] = test: as above
Calu-3 [13] = test: drug sensitivity score (DSS) for viability; higher = more toxic; extreme values may be limits of the assay
Calu-3 [14] = test: relative viability EC50 (midpoint between 100% and the lowest measured viability); higher = less toxic
Calu-3 [15] = test: cell viability relative to DMSO; higher = less toxic

SMILES	drug sensitivity score (HepG2 [1])	drug sensitivity score (U2OS [2])	drug sensitivity score (Caco-2 [3])	drug sensitivity score (Vero E6 [4])	relative viability EC50 (HepG2 [5])	relative viability EC50 (U2OS [6])	relative viability EC50 (Caco-2 [7])	relative viability EC50 (Vero E6 [8])	cell viability (HepG2 [9]; 1 nM)	cell viability (HepG2 [9]; 10 nM)	cell viability (HepG2 [9]; 100 nM)	cell viability (HepG2 [9]; 1000 nM)	cell viability (HepG2 [9]; 10000 nM)	cell viability (U2OS [10]; 1 nM)	cell viability (U2OS [10]; 10 nM)	cell viability (U2OS [10]; 100 nM)	cell viability (U2OS [10]; 1000 nM)	cell viability (U2OS [10]; 10000 nM)	cell viability (Caco-2 [11]; 1 nM)	cell viability (Caco-2 [11]; 10 nM)	cell viability (Caco-2 [11]; 100 nM)	cell viability (Caco-2 [11]; 1000 nM)	cell viability (Caco-2 [11]; 10000 nM)	cell viability (Vero E6 [12]; 1 nM)	cell viability (Vero E6 [12]; 10 nM)	cell viability (Vero E6 [12]; 100 nM)	cell viability (Vero E6 [12]; 1000 nM)	cell viability (Vero E6 [12]; 10000 nM)	drug sensitivity score (Calu-3 [13])	relative viability EC50 (Calu-3 [14])	cell viability (Calu-3 [15]; 1 nM)	cell viability (Calu-3 [15]; 10 nM)	cell viability (Calu-3 [15]; 100 nM)	cell viability (Calu-3 [15]; 1000 nM)	cell viability (Calu-3 [15]; 10000 nM)
CC(C)(C)CC(=O)Nc1c(F)cc(C(=O)/N=c2\sccn2COP(=O)(O)O)cc1F	0	0	0	0	> 10 µM	> 10 µM	> 10 µM	> 10 µM	101%	114%	94.8%	98.9%	96.9%	95.8%	101%	97%	98.2%	95.5%	97.9%	109%	99.4%	104%	92.3%	107%	104%	102%	96.5%	94.3%	–	–	–	–	–	–	–
Nc1cccc(CNC(=O)c2ccc(Oc3ccc(OCc4cccc(F)c4)cc3)nc2)c1	1.7	0	0.9	0	> 10 µM	> 10 µM	–	> 10 µM	92.9%	102%	103%	91.8%	77.9%	99%	106%	94.8%	101%	92.1%	100%	102%	91.5%	107%	71.2%	93.4%	99.9%	98.8%	102%	99.3%	0.7	> 10 µM	104%	101%	96.1%	97.7%	81.9%
Nc1nccc(-c2c(-c3ccc(F)cc3)ncn2C2CCCCC2)n1	4.3	0.6	2.3	0.4	2.08 µM	> 10 µM	–	> 10 µM	97.8%	99.7%	100%	92.4%	43.3%	98.2%	102%	103%	95.5%	85%	102%	96.2%	97.3%	85.2%	74.8%	105%	103%	99.2%	108%	79.8%	3.7	–	91.1%	100%	105%	87%	62.1%
Nc1ncnc2c1c(-c1ccc(Oc3ccccc3)cc1)nn2C1CCCC1	1	1.1	2.3	0.3	> 10 µM	> 10 µM	–	> 10 µM	89.7%	101%	92%	88.3%	82%	102%	97.3%	101%	97.4%	78.7%	109%	96.7%	95.7%	93.6%	70.1%	94.2%	100%	97.1%	90.8%	87.1%	3	–	105%	104%	99%	95.8%	54.5%
Oc1cc2c(cc1O)[C@H]1c3ccccc3CN[C@@H]1CC2 (racemic) [dihydrexidine]	0	0	0	0	> 10 µM	> 10 µM	> 10 µM	> 10 µM	83.4%	95.8%	90.9%	93.2%	82.1%	101%	93.2%	104%	96.9%	104%	102%	97.7%	99.6%	92.6%	97.9%	96.7%	96.7%	96.8%	97.6%	104%	–	–	–	–	–	–	–
Cc1c(NC(=O)c2cc3c(s2)CCCC3)cccc1-c1cn(C)c(=O)c(Nc2ccc(C3C(=O)N(C)CCN3C)cc2)n1 (stereo in doubt) [GDC-0834]	0	0	1.5	0	> 10 µM	> 10 µM	–	> 10 µM	106%	95.6%	94.7%	107%	97.2%	103%	99.1%	98.5%	101%	92.7%	104%	98.3%	99.9%	96.3%	74.6%	105%	101%	104%	97.4%	105%	0	> 10 µM	96.6%	100%	96.2%	95.4%	95.8%
CCC(=O)OCC(=O)[C@@]1(OC(=O)CC)[C@@H](C)C[C@H]2[C@@H]3CCC4=CC(=O)C=C[C@]4(C)[C@@]3(F)[C@@H](O)C[C@@]21C [BETAMETHASONE 17,21-DIPROPIONATE]	0	0	0	0	> 10 µM	> 10 µM	> 10 µM	> 10 µM	103%	88.3%	101%	95.5%	110%	91.6%	96.8%	93.7%	97%	102%	99%	97.8%	99.9%	111%	98.2%	103%	95.2%	91.2%	92.9%	99.1%	–	–	–	–	–	–	–
COC(=O)c1cc2c(C(F)(F)F)cc(-c3ccccc3)cc2n1O [NHI-2]	0	0	0	0	> 10 µM	> 10 µM	> 10 µM	> 10 µM	95.1%	103%	110%	98.2%	99.3%	103%	98.1%	102%	97.1%	101%	106%	90.2%	102%	90.1%	91.2%	104%	104%	98.8%	101%	97.5%	–	–	–	–	–	–	–
COc1cc(N2CCC(N3CCN(C)CC3)CC2)ccc1Nc1ncc(Cl)c(Nc2ccccc2S(=O)(=O)C(C)C)n1 [NVP-TAE684]	8.1	5.7	4.3	4.9	0.926 µM	2.22 µM	–	1.81 µM	91.7%	96.1%	103%	63.9%	34.2%	106%	97.9%	102%	91.2%	22.9%	103%	104%	101%	87.4%	53.5%	100%	97.2%	93.5%	89.5%	42.6%	3.4	–	97.2%	94.5%	90.2%	86.6%	61.5%
CC(=O)c1cnc2ccc(-c3cc(Cl)c(O)c(Cl)c3)nc2c1N[C@H]1CC[C@H](CN(C)C)CC1 [OTS167]	30.3	30.5	21.5	29.2	0.0253 µM	0.0295 µM	0.0765 µM	0.0351 µM	108%	84.7%	11.4%	5.1%	3.9%	97.6%	86.7%	10.7%	5.5%	0%	98.5%	98.4%	41.1%	34.8%	12%	96.4%	100%	6.3%	11.7%	2.6%	–	–	–	–	–	–	–
CSC[C@H](N)C(=O)O [S-methylcysteine]	0	0	0	0	> 10 µM	> 10 µM	> 10 µM	> 10 µM	89.3%	100%	95.6%	92.3%	99.3%	101%	98.7%	104%	98.1%	102%	79.7%	105%	86.5%	101%	97.3%	92.8%	93.6%	97.1%	96.3%	105%	–	–	–	–	–	–	–
NC(=O)CN1C=CCC(C(N)=O)=C1 [caricotamide]	0	–	0	0	> 10 µM	–	> 10 µM	> 10 µM	93.2%	103%	104%	116%	106%	–	–	–	–	–	113%	103%	103%	97.7%	104%	101%	95.4%	99.5%	99%	101%	–	–	–	–	–	–	–
